Assay results reported in PubChem BioAssay AID256 (DTP/NCI, 2004).
Where “and” joins values, the source holds several entries; their conditions need not be identical. Equal values may be shown once. Toxic doses and inconclusive results are not listed. The calls were made as follows: active = survival T/C of 150% or more; inactive = T/C below 125% in these data.

Test system: CD2F1 mice, L1210 leukemia ip, survival T/C
Assay: NCI In Vivo Anticancer Drug Screen. Data for tumor model L1210 Leukemia (intraperitoneal) in CD2F1 (CDF1) mice
Details: higher = longer survival
Procedure, shortened: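 Each value reflects a quotient of treated over vehicle control outcomes in mice with a transplanted tumor.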

[1] = endpoint: mean survival time, dose: 25.0 mg/kg/injection, schedule: Q01DX009 (ip), vehicle: saline with Tween-80
[2] = endpoint: mean survival time, dose: 25.0 mg/kg/injection, schedule: Q04DX003 (ip), vehicle: saline with Tween-80
[3] = endpoint: mean survival time, dose: 50.0 mg/kg/injection, schedule: Q01DX009 (ip), vehicle: saline with Tween-80
[4] = endpoint: mean survival time, dose: 50.0 mg/kg/injection, schedule: Q04DX003 (ip), vehicle: saline with Tween-80
[5] = endpoint: mean survival time, dose: 100.0 mg/kg/injection, schedule: Q01DX001 (ip), vehicle: saline with Tween-80
[6] = endpoint: mean survival time, dose: 100.0 mg/kg/injection, schedule: Q04DX003 (ip), vehicle: saline with Tween-80
[7] = endpoint: mean survival time, dose: 200.0 mg/kg/injection, schedule: Q01DX001 (ip), vehicle: saline with Tween-80
[8] = endpoint: mean survival time, dose: 200.0 mg/kg/injection, schedule: Q01DX009 (ip), vehicle: saline with Tween-80
[9] = endpoint: mean survival time, dose: 400.0 mg/kg/injection, schedule: Q01DX001 (ip), vehicle: saline with Tween-80
[10] = endpoint: mean survival time, dose: 400.0 mg/kg/injection, schedule: Q01DX009 (ip), vehicle: saline with Tween-80
[11] = endpoint: mean survival time, dose: 12.5 mg/kg/injection, schedule: Q01DX009 (ip), vehicle: saline with Tween-80
[12] = endpoint: mean survival time, dose: 100.0 mg/kg/injection, schedule: Q04DX002 (ip), vehicle: saline with Tween-80
[13] = endpoint: mean survival time, dose: 200.0 mg/kg/injection, schedule: Q04DX002 (ip), vehicle: saline with Tween-80
[14] = endpoint: mean survival time, dose: 100.0 mg/kg/injection, schedule: Q01DX009 (ip), vehicle: saline with Tween-80
[15] = endpoint: mean survival time, dose: 200.0 mg/kg/injection, schedule: Q04DX003 (ip), vehicle: saline with Tween-80
[16] = endpoint: mean survival time, dose: 400.0 mg/kg/injection, schedule: Q04DX003 (ip), vehicle: saline with Tween-80
[17] = endpoint: mean survival time, dose: 6.25 mg/kg/injection, schedule: Q01DX009 (ip), vehicle: saline with Tween-80
[18] = endpoint: mean survival time, dose: 50.0 mg/kg/injection, schedule: Q01DX009 (ip), vehicle: saline
[19] = endpoint: mean survival time, dose: 100.0 mg/kg/injection, schedule: Q01DX009 (ip), vehicle: saline
[20] = endpoint: mean survival time, dose: 100.0 mg/kg/injection, schedule: Q01DX001 (ip), vehicle: saline

Measured: T/C

CC[Si](CC)(CC)c1ccc(CCNCCS)s1
inactive: endpoint: mean survival time, dose: 37.5 mg/kg/injection, schedule: Q01DX009 (ip), vehicle: saline 107 % of control | endpoint: mean survival time, dose: 75.0 mg/kg/injection, schedule: Q01DX009 (ip), vehicle: saline 101 % of control

CCOc1ccc(-n2c(-c3ccc(Br)cc3)csc2=NC(=O)c2ccccc2F)cc1
inactive: [1] 92 % of control and 100 % of control | [2] 88 % of control | [3] 88 % of control | [4] 94 % of control | [5] 93 % of control | [6] 92 % of control and 95 % of control | [7] 91 % of control | [8] 88 % of control and 90 % of control | [9] 95 % of control | [10] 90 % of control

CC(=O)OC(C)(C)/C=C/C(=O)[C@](C)(O)[C@H]1[C@H](O)C[C@@]2(C)[C@@H]3CC=C4[C@@H](CC[C@H](O)C4(C)C)[C@]3(CO)C(=O)C[C@]12C
inactive: endpoint: mean survival time, dose: 0.6 mg/kg/injection, schedule: Q01DX009 (ip), vehicle: saline with Tween-80 105 % of control | endpoint: mean survival time, dose: 0.63 mg/kg/injection, schedule: Q04DX003 (ip), vehicle: saline with Tween-80 105 % of control | endpoint: mean survival time, dose: 1.2 mg/kg/injection, schedule: Q01DX009 (ip), vehicle: saline with Tween-80 105 % of control | endpoint: mean survival time, dose: 1.25 mg/kg/injection, schedule: Q04DX003 (ip), vehicle: saline with Tween-80 112 % of control | endpoint: mean survival time, dose: 2.4 mg/kg/injection, schedule: Q01DX009 (ip), vehicle: saline with Tween-80 107 % of control | endpoint: mean survival time, dose: 2.5 mg/kg/injection, schedule: Q04DX003 (ip), vehicle: saline with Tween-80 114 % of control

CCCCCCCCCCCCCCCCCCN1CCOCC1
inactive: [11] 94 % of control | [1] 102 % of control | [3] 94 % of control

COc1cc(C=C(c2ccc(N(C)C)cc2)c2ccc(N(C)C)cc2)c(OC)c2ccccc12
inactive: [5] 102 % of control | [12] 90 % of control | [7] 101 % of control | [13] 87 % of control | [9] 90 % of control

Cc1c(Cl)cccc1NS(=O)(=O)c1ccccc1
inactive: [14] 108 % of control | [6] 92 % of control | [8] 103 % of control | [15] 99 % of control | [10] 103 % of control | [16] 99 % of control

[Cl][Pt+2][Cl].[NH-]C1CC1.[NH2-]
inactive: endpoint: mean survival time, dose: 0.39 mg/kg/injection, schedule: Q04DX003 (ip), vehicle: saline 101 % of control | endpoint: mean survival time, dose: 0.78 mg/kg/injection, schedule: Q04DX003 (ip), vehicle: saline 103 % of control and 104 % of control | endpoint: mean survival time, dose: 1.56 mg/kg/injection, schedule: Q04DX003 (ip), vehicle: saline 121 % of control and 108 % of control | endpoint: mean survival time, dose: 3.12 mg/kg/injection, schedule: Q04DX003 (ip), vehicle: saline with Tween-80 124 % of control

O=C(Nc1cccc2ccccc12)OCCCBr
inactive: endpoint: mean survival time, dose: 3.13 mg/kg/injection, schedule: Q01DX009 (ip), vehicle: saline with Tween-80 97 % of control | [17] 103 % of control | [11] 94 % of control and 101 % of control | [3] 86 % of control

C/C(=N/NC(N)=S)c1ccc2ccccc2c1
inactive: [17] 103 % of control | [11] 115 % of control | [1] 122 % of control | [3] 89 % of control

C=C1C(=O)OC2CC/C=C\CCC12 (stereo unspecified)
inactive: [18] 105 % of control | [19] 97 % of control | endpoint: mean survival time, dose: 200.0 mg/kg/injection, schedule: Q01DX009 (ip), vehicle: saline 102 % of control

N=C(N)c1ccc(OCCOc2cccc(N)c2)cc1
inactive: endpoint: mean survival time, dose: 25.0 mg/kg/injection, schedule: Q01DX009 (ip), vehicle: saline 100 % of control | [18] 95 % of control | [14] 93 % of control | [19] 97 % of control

CN=C(NC)c1cccc(NC(=O)/C=C\c2ccc(/C=C/C(=O)Nc3cccc(C(=NC)NC)c3)cc2)c1
inactive: endpoint: median survival time, dose: 1.25 mg/kg/injection, schedule: Q01DX009 (ip), vehicle: saline 101 % of control | endpoint: median survival time, dose: 2.5 mg/kg/injection, schedule: Q01DX009 (ip), vehicle: saline 107 % of control | endpoint: median survival time, dose: 5.0 mg/kg/injection, schedule: Q01DX009 (ip), vehicle: saline 101 % of control

CN(CCO)N=Nc1ccccc1
inactive: endpoint: mean survival time, dose: 75.0 mg/kg/injection, schedule: Q01DX001 (ip), vehicle: saline 102 % of control | endpoint: mean survival time, dose: 150.0 mg/kg/injection, schedule: Q01DX001 (ip), vehicle: saline 105 % of control

O=C(c1ccc([N+](=O)[O-])cc1)n1ncc2ccccc21
inactive: endpoint: median survival time, dose: 25.0 mg/kg/injection, schedule: Q04DX002 (ip), vehicle: saline with Tween-80 100 % of control | endpoint: median survival time, dose: 50.0 mg/kg/injection, schedule: Q04DX002 (ip), vehicle: saline with Tween-80 100 % of control | endpoint: median survival time, dose: 100.0 mg/kg/injection, schedule: Q04DX002 (ip), vehicle: saline with Tween-80 100 % of control | endpoint: median survival time, dose: 200.0 mg/kg/injection, schedule: Q04DX002 (ip), vehicle: saline with Tween-80 100 % of control

CCCCc1c(N)nc(N)nc1N
inactive: endpoint: mean survival time, dose: 18.7 mg/kg/injection, schedule: Q01DX001 (ip), vehicle: saline with Tween-80 104 % of control | endpoint: mean survival time, dose: 37.5 mg/kg/injection, schedule: Q01DX001 (ip), vehicle: saline with Tween-80 100 % of control | endpoint: mean survival time, dose: 75.0 mg/kg/injection, schedule: Q01DX001 (ip), vehicle: saline with Tween-80 109 % of control

CCCC[CH2][Pb]([CH2]CCCC)([CH2]CCCC)[O]C(C)=O
inactive: endpoint: mean survival time, dose: 0.25 mg/kg/injection, schedule: Q01DX009 (ip), vehicle: saline with Tween-80 96 % of control | endpoint: mean survival time, dose: 0.5 mg/kg/injection, schedule: Q01DX009 (ip), vehicle: saline with Tween-80 93 % of control | endpoint: mean survival time, dose: 1.0 mg/kg/injection, schedule: Q01DX009 (ip), vehicle: saline with Tween-80 90 % of control | endpoint: mean survival time, dose: 1.0 mg/kg/injection, schedule: Q04DX003 (ip), vehicle: saline with Tween-80 95 % of control

O=c1c2ccccc2c(-c2ccccc2)nn1Cc1ccccc1
inactive: [6] 103 % of control | [15] 108 % of control | [16] 98 % of control

CCOc1c(NCCO)c2cc(Cl)ccc2oc1=O
inactive: [5] 95 % of control | [7] 87 % of control | [9] 97 % of control

CCn1c(C)cc(=O)c2ccccc21
inactive: [12] 105 % of control | [13] 94 % of control

CC(=O)Oc1ccc2ccccc2c1
inactive: [1] 100 % of control | [3] 107 % of control | [5] 107 % of control

NC(=O)c1[nH]nc(C2OC(COP(=O)(O)O)C(O)C2O)c1O (stereo unspecified)
inactive: endpoint: median survival time, dose: 6.25 mg/kg/injection, schedule: Q01DX005 (ip), vehicle: saline 122 % of control | endpoint: median survival time, dose: 12.5 mg/kg/injection, schedule: Q01DX005 (ip), vehicle: saline 93 % of control | endpoint: median survival time, dose: 25.0 mg/kg/injection, schedule: Q01DX005 (ip), vehicle: saline 93 % of control

O=[N+]([O-])c1ccccc1C[P+](c1ccccc1)(c1ccccc1)c1ccccc1
inactive: [2] 98 % of control | [4] 114 % of control

COc1ccc2[nH]c(-c3ccccc3)cc2c1
inactive: [6] 93 % of control | [15] 88 % of control | [16] 98 % of control

CCOC(=O)c1cc(C[N+](C)(C)C)oc1C
inactive: endpoint: mean survival time, dose: 25.0 mg/kg/injection, schedule: Q01DX001 (ip), vehicle: saline 96 % of control | endpoint: mean survival time, dose: 50.0 mg/kg/injection, schedule: Q01DX001 (ip), vehicle: saline 102 % of control | [5] 106 % of control | [20] 98 % of control

CC1(C)C=CS1(=O)=O
inactive: endpoint: mean survival time, dose: 50.0 mg/kg/injection, schedule: Q04DX003 (ip), vehicle: saline 98 % of control | [20] 103 % of control | endpoint: mean survival time, dose: 100.0 mg/kg/injection, schedule: Q04DX003 (ip), vehicle: saline 96 % of control | endpoint: mean survival time, dose: 200.0 mg/kg/injection, schedule: Q01DX001 (ip), vehicle: saline 102 % of control | endpoint: mean survival time, dose: 200.0 mg/kg/injection, schedule: Q04DX003 (ip), vehicle: saline 101 % of control

Cc1ccc(S(=O)(=O)OCC(O)C(O)C(O)C(C)O)cc1 (stereo unspecified)
inactive: [5] 98 % of control | [7] 98 % of control | [9] 102 % of control

[CH3][Sn]1([CH3])[O]C2C(CO)OC(n3ccc(=O)[nH]c3=O)C2[O]1 (stereo unspecified)
inactive: endpoint: mean survival time, dose: 12.5 mg/kg/injection, schedule: Q01DX005 (ip), vehicle: other 95 % of control | endpoint: mean survival time, dose: 25.0 mg/kg/injection, schedule: Q01DX005 (ip), vehicle: other 101 % of control | endpoint: mean survival time, dose: 50.0 mg/kg/injection, schedule: Q01DX005 (ip), vehicle: other 92 % of control
